The record followed here is patent US6805870B1 (priority 1994, dated 2004).

For the assay, the system named is VSV. In kind it is in vivo, mouse.

Read-outs that look alike come from different tables or passages of the source.

For the compound `c1ccc([C@H]2CN3CCSC3=N2)cc1` [levamisole], the “efficacy index (mean of at least 2 tests)” value is listed as 0 (mouse, in vivo); “toxic” (preparation dilution 1:4); 0 (preparation dilution 1:8); 0 (preparation dilution 1:32); 0 (preparation dilution 1:64); 0 (preparation dilution 1:128).
